Test results: patent US20250214976A1, “GPR35 MODULATORS AND USES THEREOF” (Crossignal Therapeutics, Inc., priority 2022, published 2025)

Biological target: T1, human GPR35 (Homo sapiens, UniProt Q9HC97)
T1 construct: expressed in transfected cells; host or cells: HEK293
Assay: Luciferase Reporter Assay (YAP responsive element) in HEK293 cells stably transfected with human GPR35
Format: cell-based
Settings: overnight incubation
Protocol: HEK293 cells stably transfected with human GPR35 were maintained in Dulbecco's Modified Eagle Medium (DMEM) supplemented with 10% FBS and 300 μg/mL Zeocin and 200 μg/mL Hygromycin at 37° C., 10% CO2. On Day 1, cells were plated in poly-D-lysine coated 96-well tissue culture plate in regular growth medium (DMEM/10% FBS/300 μg/mL Zeocin/200 μg/mL Hygromycin. On the next day, luciferase reporter plasmid DNA with YAP responsive element was transfected into cells using lipofectamine 2000 (Invitrogen) following manufacture's protocol. After transfection for 6 hr., cells were treated with testing compounds in fasting DMEM medium (phenol red free, FBS free) at varying compound concentrations ranging from 10 μM to […] in a 3-fold serial diluted fashion. After an overnight incubation, the luciferase activities were measured with SteadyLite Plus Kit (PerkinElmer) according to manufacturer's protocol. IC50 was determined by fitting the dose-response data to a four-parameter logistic curve using GraphPad Prism.
The symbol “+” indicates IC50 is greater than […]. “++” indicates IC50>100 nM but ≤[…]. “+++” indicates IC50≤100 nM.

T1 sequence (Q9HC97 whole entry): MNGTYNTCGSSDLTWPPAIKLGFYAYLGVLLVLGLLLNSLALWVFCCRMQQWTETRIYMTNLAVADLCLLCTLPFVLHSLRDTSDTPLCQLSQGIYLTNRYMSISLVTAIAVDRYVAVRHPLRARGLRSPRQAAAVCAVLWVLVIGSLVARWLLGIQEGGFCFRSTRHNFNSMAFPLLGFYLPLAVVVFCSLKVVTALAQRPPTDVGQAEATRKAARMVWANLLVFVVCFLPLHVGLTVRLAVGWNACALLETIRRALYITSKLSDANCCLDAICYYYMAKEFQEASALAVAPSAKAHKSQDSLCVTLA

Compound	IC50 [µM]
C[C@H](Oc1ccc(NC(=O)c2coc3cc(-c4nnn[nH]4)c(F)cc23)cc1)c1ccc(F)cc1Cl (single isomer, unassigned) [Compound 1-25]	> 1
C[C@@H](Oc1ccc(NC(=O)c2coc3cc(-c4nnn[nH]4)c(F)cc23)cc1)c1ccc(F)cc1Cl (single isomer, unassigned) [Compound 1-26]	> 1
O=C(Nc1ccc(O[C@H]2CCC(F)(F)C2)c(F)c1)c1coc2cc(-c3nnn[nH]3)c(F)cc12 (single isomer, unassigned) [Compound 1-36]	≤ 0.1
O=C(Nc1ccc(O[C@@H]2CCC(F)(F)C2)c(F)c1)c1coc2cc(-c3nnn[nH]3)c(F)cc12 (single isomer, unassigned) [Compound 1-37]	≤ 0.1
O=C(Nc1ccc(OC2CCCC2)c(F)c1)c1coc2cc(-c3nnn[nH]3)ccc12 [Compound 1-1, N-(4-(cyclopentyloxy)-3-fluorophenyl)-6-(1H-tetrazol-5-yl)benzofuran-3-carboxamide]	≤ 0.1
O=C(Nc1ccc(OC2CCC2)c(F)c1)c1coc2cc(-c3nnn[nH]3)ccc12 [Compound 1-2, N-(4-cyclobutoxy-3-fluorophenyl)-6-(1H-tetrazol-5-yl)benzofuran-3-carboxamide]	≤ 0.1
O=C(O)c1ccc2c(C(=O)Nc3ccc(OC4CCC4)c(F)c3)coc2c1 [Compound 1-3, 3-((4-cyclobutoxy-3-fluorophenyl)carbamoyl)benzofuran-6-carboxylic acid]	> 1
O=C(Nc1ccc(OC2CCC2)c(F)c1)c1coc2cc(OCc3nnn[nH]3)ccc12 [Compound 1-4, 6-((1H-tetrazol-5-yl)methoxy)-N-(4-cyclobutoxy-3-fluorophenyl)benzofuran-3-carboxamide]	> 1
O=C(Nc1ccc(OCc2ccc(F)cc2Cl)c(F)c1)c1coc2cc(-c3nnn[nH]3)ccc12 [Compound 1-6, N-(4-((2-chloro-4-fluorobenzyl)oxy)-3-fluorophenyl)-6-(1H-tetrazol-5-yl)benzofuran-3-carboxamide]	0.1 to 1
O=C(Nc1ccc(OCc2ccc(F)cc2Cl)cc1)c1coc2cc(OCc3nnn[nH]3)ccc12 [Compound 1-8, 6-((1H-tetrazol-5-yl)methoxy)-N-(4-((2-chloro-4-fluorobenzyl)oxy)phenyl)benzofuran-3-carboxamide]	> 1
O=C(Nc1ccc(OC2CCCC2)c(F)c1F)c1coc2cc(-c3nnn[nH]3)ccc12 [Compound 1-9, N-(4-(cyclopentyloxy)-2,3-difluorophenyl)-6-(1H-tetrazol-5-yl)benzofuran-3-carboxamide]	> 1
O=C(Nc1ccc(OCc2ccc(F)cc2Cl)c(F)c1)c1coc2c(-c3nnn[nH]3)cccc12 [Compound 1-11, N-(4-((2-chloro-4-fluorobenzyl)oxy)-3-fluorophenyl)-7-(1H-tetrazol-5-yl)benzofuran-3-carboxamide]	> 1
O=C(Nc1ccc(OCc2ccc(F)cc2Cl)cc1)c1coc2cc(-c3nnn[nH]3)ccc12 [Compound 1-13, N-(4-((2-chloro-4-fluorobenzyl)oxy)phenyl)-6-(1H-tetrazol-5-yl)benzofuran-3-carboxamide]	≤ 0.1
O=C(Nc1ccc(C2CCCC2)c(F)c1)c1coc2cc(-c3nnn[nH]3)ccc12 [Compound 1-14, N-(4-cyclopentyl-3-fluorophenyl)-6-(1H-tetrazol-5-yl)benzofuran-3-carboxamide]	≤ 0.1
CC1(Oc2ccc(NC(=O)c3coc4cc(-c5nnn[nH]5)ccc34)cc2F)CC1 [Compound 1-15, N-(3-fluoro-4-(1-methylcyclopropoxy)phenyl)-6-(1H-tetrazol-5-yl)benzofuran-3-carboxamide]	≤ 0.1
O=C(Nc1ccc(OCc2ccc(F)cc2Cl)cc1)c1coc2cc(-c3nnn[nH]3)c(F)cc12 [Compound 1-18, N-(4-((2-chloro-4-fluorobenzyl)oxy)phenyl)-5-fluoro-6-(1H-tetrazol-5-yl)benzofuran-3-carboxamide]	≤ 0.1
O=C(Nc1ccc(OCc2ccc(Cl)cc2Cl)cc1)c1coc2cc(-c3nnn[nH]3)c(F)cc12 [Compound 1-19, N-(4-((2,4-dichlorobenzyl)oxy)phenyl)-5-fluoro-6-(1H-tetrazol-5-yl)benzofuran-3-carboxamide]	0.1 to 1
O=C(Nc1ccc(O[C@@H]2CCOC2)c(F)c1)c1coc2cc(-c3nnn[nH]3)c(F)cc12 [Compound 1-22, (R)-5-fluoro-N-(3-fluoro-4-((tetrahydrofuran-3-yl)oxy)phenyl)-6-(1H-tetrazol-5-yl)benzofuran-3-carboxamide]	> 1
NC(=O)c1cc2occ(C(=O)Nc3ccc(OCc4ccc(F)cc4Cl)cc3)c2cc1F [Compound 1-23, N3-(4-((2-chloro-4-fluorobenzyl)oxy)phenyl)-5-fluorobenzofuran-3,6-dicarboxamide]	> 1
O=C(Nc1ccc(OC2CC(F)(F)C2)c(F)c1)c1coc2cc(-c3nnn[nH]3)c(F)cc12 [Compound 1-27, N-(4-(3,3-difluorocyclobutoxy)-3-fluorophenyl)-5-fluoro-6-(1H-tetrazol-5-yl)benzofuran-3-carboxamide]	0.1 to 1
O=C(Nc1ccc(OCc2ccc(F)cc2Cl)cc1)c1coc2cc(Oc3nnn[nH]3)ccc12 [Compound 1-29, 6-((1H-tetrazol-5-yl)oxy)-N-(4-((2-chloro-4-fluorobenzyl)oxy)phenyl)benzofuran-3-carboxamide]	> 1
O=C(Nc1ccc(N2CCC[C@H]2C(F)(F)F)c(F)c1)c1coc2cc(-c3nnn[nH]3)c(F)cc12 [Compound 1-32, (S)-5-fluoro-N-(3-fluoro-4-(2-(trifluoromethyl)pyrrolidin-1-yl)phenyl)-6-(1H-tetrazol-5-yl)benzofuran-3-carboxamide]	0.1 to 1

Second part, the molecule after the results:

IC50 [µM]	Compound
≤ 0.1	C[C@H](Oc1ccc(NC(=O)c2coc3cc(-c4nnn[nH]4)c(F)cc23)cc1F)C(F)(F)F (single isomer, unassigned) [Compound 1-30]
0.1 to 1	C[C@@H](Oc1ccc(NC(=O)c2coc3cc(-c4nnn[nH]4)c(F)cc23)cc1F)C(F)(F)F (single isomer, unassigned) [Compound 1-31]
> 1	O=C(Nc1ccc(OCc2ccc(F)cc2Cl)c(F)c1)c1coc2cc(OCc3nnn[nH]3)ccc12 [Compound 1-5, 6-((1H-tetrazol-5-yl)methoxy)-N-(4-((2-chloro-4-fluorobenzyl)oxy)-3-fluorophenyl)benzofuran-3-carboxamide]
> 1	O=C(Nc1ccc(OC2CCCC2)c(F)c1)c1coc2c(-c3nnn[nH]3)cccc12 [Compound 1-7, N-(4-(cyclopentyloxy)-3-fluorophenyl)-7-(1H-tetrazol-5-yl)benzofuran-3-carboxamide]
≤ 0.1	O=C(Nc1cc(F)c(OC2CCCC2)cc1F)c1coc2cc(-c3nnn[nH]3)ccc12 [Compound 1-10, N-(4-(cyclopentyloxy)-2,5-difluorophenyl)-6-(1H-tetrazol-5-yl)benzofuran-3-carboxamide]
> 1	O=C(Nc1ccc(F)c(F)c1OC1CCCC1)c1coc2cc(-c3nnn[nH]3)ccc12 [Compound 1-12, N-(2-(cyclopentyloxy)-3,4-difluorophenyl)-6-(1H-tetrazol-5-yl)benzofuran-3-carboxamide]
≤ 0.1	CC1(Oc2ccc(NC(=O)c3coc4cc(-c5nnn[nH]5)c(F)cc34)cc2F)CC1 [Compound 1-16, 5-fluoro-N-(3-fluoro-4-(1-methylcyclopropoxy)phenyl)-6-(1H-tetrazol-5-yl)benzofuran-3-carboxamide]
≤ 0.1	O=C(Nc1ccc(C2CCCC2)c(F)c1)c1coc2cc(-c3nnn[nH]3)c(F)cc12 [Compound 1-17, N-(4-cyclopentyl-3-fluorophenyl)-5-fluoro-6-(1H-tetrazol-5-yl)benzofuran-3-carboxamide]
≤ 0.1	O=C(Nc1ccc(OC2CCCC2)c(F)c1)c1coc2cc(-c3nnn[nH]3)c(F)cc12 [Compound 1-20, N-(4-(cyclopentyloxy)-3-fluorophenyl)-5-fluoro-6-(1H-tetrazol-5-yl)benzofuran-3-carboxamide]
0.1 to 1	O=C(Nc1ccc(O[C@H]2CCOC2)c(F)c1)c1coc2cc(-c3nnn[nH]3)c(F)cc12 [Compound 1-21, (S)-5-fluoro-N-(3-fluoro-4-((tetrahydrofuran-3-yl)oxy)phenyl)-6-(1H-tetrazol-5-yl)benzofuran-3-carboxamide]
≤ 0.1	O=C(Nc1ccc(OCc2ccc(F)cc2Cl)cc1)c1coc2cc(-c3noc(=O)[nH]3)c(F)cc12 [Compound 1-24, N-(4-((2-chloro-4-fluorobenzyl)oxy)phenyl)-5-fluoro-6-(5-oxo-4,5-dihydro-1,2,4-oxadiazol-3-yl)benzofuran-3-carboxamide]
0.1 to 1	O=C(Nc1ccc(OC2COC2)c(F)c1)c1coc2cc(-c3nnn[nH]3)c(F)cc12 [Compound 1-28, 5-fluoro-N-(3-fluoro-4-(oxetan-3-yloxy)phenyl)-6-(1H-tetrazol-5-yl)benzofuran-3-carboxamide]
0.1 to 1	O=C(Nc1ccc(N2CCC[C@@H]2C(F)(F)F)c(F)c1)c1coc2cc(-c3nnn[nH]3)c(F)cc12 [Compound 1-33, (R)-5-fluoro-N-(3-fluoro-4-(2-(trifluoromethyl)pyrrolidin-1-yl)phenyl)-6-(1H-tetrazol-5-yl)benzofuran-3-carboxamide]
≤ 0.1	O=C(Nc1ccc(N2CCC(F)(F)C2)c(F)c1)c1coc2cc(-c3nnn[nH]3)c(F)cc12 [Compound 1-34, N-(4-(3,3-difluoropyrrolidin-1-yl)-3-fluorophenyl)-5-fluoro-6-(1H-tetrazol-5-yl)benzofuran-3-carboxamide]
